Assays:
Format in all cases: cell-based
human TLR7 = molecular target: T1, human TLR7 (Homo sapiens, UniProt Q9NYK1); assay: TLR7 inhibition reporter assay (HEK-Blue cells, SEAP reporter, gardiquimod stimulation); settings: HEK-Blue cells overexpressing human TLR7, SEAP reporter, gardiquimod 7.5 μM; read-out: TLR7 IC50
T1 construct: host or cells: HEK-Blue cells
T1 sequence (Q9NYK1 27-1049): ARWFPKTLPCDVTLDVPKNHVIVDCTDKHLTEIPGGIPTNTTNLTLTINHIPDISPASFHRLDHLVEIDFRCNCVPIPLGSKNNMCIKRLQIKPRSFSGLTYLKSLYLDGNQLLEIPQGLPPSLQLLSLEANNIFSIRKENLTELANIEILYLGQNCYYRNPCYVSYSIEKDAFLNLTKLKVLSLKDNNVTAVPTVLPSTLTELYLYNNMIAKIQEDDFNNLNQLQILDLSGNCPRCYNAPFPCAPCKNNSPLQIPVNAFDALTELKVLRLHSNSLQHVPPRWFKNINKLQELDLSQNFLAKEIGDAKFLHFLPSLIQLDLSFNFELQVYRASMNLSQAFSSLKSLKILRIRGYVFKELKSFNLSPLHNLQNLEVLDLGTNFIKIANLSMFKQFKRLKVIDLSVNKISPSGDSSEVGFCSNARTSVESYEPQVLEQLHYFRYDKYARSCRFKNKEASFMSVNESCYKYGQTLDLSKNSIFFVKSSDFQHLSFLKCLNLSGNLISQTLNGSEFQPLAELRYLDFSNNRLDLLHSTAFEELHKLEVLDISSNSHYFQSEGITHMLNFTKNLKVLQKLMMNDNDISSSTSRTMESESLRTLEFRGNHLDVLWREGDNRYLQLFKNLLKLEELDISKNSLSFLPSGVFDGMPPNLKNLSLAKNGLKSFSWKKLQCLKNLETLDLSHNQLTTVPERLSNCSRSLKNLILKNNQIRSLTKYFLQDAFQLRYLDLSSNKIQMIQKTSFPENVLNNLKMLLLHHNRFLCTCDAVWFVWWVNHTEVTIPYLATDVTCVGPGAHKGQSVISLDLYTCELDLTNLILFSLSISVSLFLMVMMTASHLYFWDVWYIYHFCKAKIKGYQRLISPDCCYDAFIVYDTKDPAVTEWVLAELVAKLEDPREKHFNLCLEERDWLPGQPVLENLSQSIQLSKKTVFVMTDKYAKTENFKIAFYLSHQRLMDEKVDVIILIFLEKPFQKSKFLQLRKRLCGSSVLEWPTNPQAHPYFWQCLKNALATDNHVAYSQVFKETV
Outline: (§1)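 Screening used HEK-Blue cells overexpressing one human TLR (7, 8 or 9) and an IFN-β minimal promoter–NF-κB/AP-1 SEAP construct. Stimulation lasted 22 h at 37 °C with receptor-specific agonist: gardiquimod, R848 or ODN2006 at 7.5 μM, 15.9 μM and 5 nM.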

human TLR9 = molecular target: T2, human TLR9 (Homo sapiens, UniProt Q9NR96); assay: TLR9 inhibition reporter assay (HEK-Blue cells, SEAP reporter, ODN2006 stimulation); settings: HEK-Blue cells overexpressing human TLR9, SEAP reporter, ODN2006 5 nM
T2 construct: host or cells: HEK-Blue cells
T2 sequence (Q9NR96 26-1032): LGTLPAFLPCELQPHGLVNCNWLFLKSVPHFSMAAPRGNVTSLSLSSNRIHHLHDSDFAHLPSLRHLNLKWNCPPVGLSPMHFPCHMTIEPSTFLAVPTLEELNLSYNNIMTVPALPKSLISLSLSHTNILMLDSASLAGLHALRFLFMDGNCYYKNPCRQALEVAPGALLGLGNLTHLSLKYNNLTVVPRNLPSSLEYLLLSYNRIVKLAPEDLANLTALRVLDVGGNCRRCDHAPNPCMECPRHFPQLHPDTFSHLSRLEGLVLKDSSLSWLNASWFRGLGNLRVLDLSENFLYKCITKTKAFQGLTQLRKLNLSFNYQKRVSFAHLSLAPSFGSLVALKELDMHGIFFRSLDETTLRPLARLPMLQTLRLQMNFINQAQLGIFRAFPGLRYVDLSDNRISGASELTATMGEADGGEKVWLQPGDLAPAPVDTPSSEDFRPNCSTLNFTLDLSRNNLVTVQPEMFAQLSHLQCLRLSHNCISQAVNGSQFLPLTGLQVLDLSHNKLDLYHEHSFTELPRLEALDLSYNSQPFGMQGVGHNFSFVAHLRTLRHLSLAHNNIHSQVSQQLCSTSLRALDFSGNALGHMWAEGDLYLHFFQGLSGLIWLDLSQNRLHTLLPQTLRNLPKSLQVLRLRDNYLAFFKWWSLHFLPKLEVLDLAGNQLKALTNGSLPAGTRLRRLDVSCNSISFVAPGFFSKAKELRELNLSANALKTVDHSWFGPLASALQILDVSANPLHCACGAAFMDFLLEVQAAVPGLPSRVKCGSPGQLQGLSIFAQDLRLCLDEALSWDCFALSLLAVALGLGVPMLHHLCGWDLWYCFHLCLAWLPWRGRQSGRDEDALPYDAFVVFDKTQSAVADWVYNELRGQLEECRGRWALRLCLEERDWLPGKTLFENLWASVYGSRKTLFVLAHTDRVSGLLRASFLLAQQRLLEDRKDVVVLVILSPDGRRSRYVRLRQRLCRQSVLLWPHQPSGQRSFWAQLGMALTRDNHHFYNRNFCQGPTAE
Outline: as §1

human TLR8 = molecular target: T3, human TLR8 (Homo sapiens, UniProt Q9NR97); assay: TLR8 inhibition reporter assay (HEK-Blue cells, SEAP reporter, R848 stimulation); settings: HEK-Blue cells overexpressing human TLR8, SEAP reporter, R848 15.9 μM; read-out: TLR8 IC50
T3 construct: host or cells: HEK-Blue cells
T3 sequence (Q9NR97 27-1041): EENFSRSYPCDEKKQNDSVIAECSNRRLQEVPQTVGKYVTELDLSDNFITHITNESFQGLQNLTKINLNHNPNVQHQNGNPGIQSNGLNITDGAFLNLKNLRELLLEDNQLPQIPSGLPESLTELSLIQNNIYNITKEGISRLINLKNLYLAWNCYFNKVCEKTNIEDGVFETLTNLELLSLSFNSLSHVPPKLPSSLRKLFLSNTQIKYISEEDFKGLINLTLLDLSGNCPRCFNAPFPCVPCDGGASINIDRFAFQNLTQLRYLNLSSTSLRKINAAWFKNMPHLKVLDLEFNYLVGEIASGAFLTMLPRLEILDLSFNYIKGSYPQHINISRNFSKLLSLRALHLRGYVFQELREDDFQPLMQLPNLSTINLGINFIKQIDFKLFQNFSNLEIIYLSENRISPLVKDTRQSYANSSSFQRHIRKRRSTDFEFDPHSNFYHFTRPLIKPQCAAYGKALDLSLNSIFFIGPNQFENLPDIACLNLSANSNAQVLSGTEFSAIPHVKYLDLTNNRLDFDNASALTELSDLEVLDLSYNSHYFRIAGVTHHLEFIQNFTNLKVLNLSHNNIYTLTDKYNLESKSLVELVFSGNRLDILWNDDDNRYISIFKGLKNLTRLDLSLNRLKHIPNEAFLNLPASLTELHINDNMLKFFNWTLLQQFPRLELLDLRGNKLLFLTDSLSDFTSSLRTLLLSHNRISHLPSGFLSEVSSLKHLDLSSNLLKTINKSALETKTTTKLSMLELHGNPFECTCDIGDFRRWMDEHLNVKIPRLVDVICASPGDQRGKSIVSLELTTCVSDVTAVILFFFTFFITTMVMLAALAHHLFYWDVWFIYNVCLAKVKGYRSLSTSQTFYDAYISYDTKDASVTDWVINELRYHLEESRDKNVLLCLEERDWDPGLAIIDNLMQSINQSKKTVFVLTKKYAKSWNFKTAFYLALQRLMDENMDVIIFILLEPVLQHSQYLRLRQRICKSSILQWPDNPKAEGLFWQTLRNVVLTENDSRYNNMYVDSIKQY
Outline: as §1

| IC50 (human TLR7) | IC50 (human TLR9) | IC50 (human TLR8) | Structure (SMILES) |
| --- | --- | --- | --- |
| 8.56 nM | 7790 nM | 7.58 nM | CC(C)c1c(-c2cn(C)c3ncccc23)[nH]c2sc(C3CCC(NCC4(C)COC4)CC3)nc12 (single isomer, unassigned) [Example 173, 4-(6-isopropyl-5-(1-methyl-1H-pyrrolo[2,3-b]pyridin-3-yl)-4H-pyrrolo[3,2-d]thiazol-2-yl)-N-((3-methyloxetan-3-yl)methyl)cyclohexan-1-amine] |
| 1.84 nM | 16000 nM | 3.13 nM | CCN(C)C1CCC(c2nc3c(C(C)C)c(-c4cn(C)c5ncccc45)[nH]c3s2)CC1 (single isomer, unassigned) [Example 174, N-ethyl-4-(6-isopropyl-5-(1-methyl-1H-pyrrolo[2,3-b]pyridin-3-yl)-4H-pyrrolo[3,2-d]thiazol-2-yl)-N-methylcyclohexan-1-amine] |
| 3.76 nM | 6250 nM | 6.23 nM | CCN(C)C1CCC(c2nc3c(C(C)C)c(-c4cn(C)c5ncccc45)[nH]c3s2)CC1 (single isomer, unassigned) [Example 175, N-ethyl-4-(6-isopropyl-5-(1-methyl-1H-pyrrolo[2,3-b]pyridin-3-yl)-4H-pyrrolo[3,2-d]thiazol-2-yl)-N-methylcyclohexan-1-amine] |
| 23.3 nM | 9580 nM | 23.7 nM | CC(C)c1c(-c2cn(C)c3ncccc23)[nH]c2sc(C3CCC(NC45CC(C4)C5)CC3)nc12 (single isomer, unassigned) [Example 176, N-(4-(6-isopropyl-5-(1-methyl-1H-pyrrolo[2,3-b]pyridin-3-yl)-4H-pyrrolo[3,2-d]thiazol-2-yl)cyclohexyl)bicyclo[1.1.1]pentan-1-amine] |
| 3.23 nM | 9790 nM | 5.63 nM | CC(C)c1c(-c2cn(C)c3ncccc23)[nH]c2sc(C3CCC(NC45CC(C4)C5)CC3)nc12 (single isomer, unassigned) [Example 177, N-(4-(6-isopropyl-5-(1-methyl-1H-pyrrolo[2,3-b]pyridin-3-yl)-4H-pyrrolo[3,2-d]thiazol-2-yl)cyclohexyl)bicyclo[1.1.1]pentan-1-amine] |
| 1.69 nM | 6710 nM | 2.44 nM | CC(C)c1c(-c2cn(C)c3ncccc23)[nH]c2sc(C3CCC(NC4COC4)CC3)nc12 (single isomer, unassigned) [Example 178, N-(4-(6-isopropyl-5-(1-methyl-1H-pyrrolo[2,3-b]pyridin-3-yl)-4H-pyrrolo[3,2-d]thiazol-2-yl)cyclohexyl)oxetan-3-amine] |
| 9.72 nM | 7260 nM | 13.5 nM | CC(C)c1c(-c2cn(C)c3ncccc23)[nH]c2sc(C3CCC(NC4COC4)CC3)nc12 (single isomer, unassigned) [Example 179, N-(4-(6-isopropyl-5-(1-methyl-1H-pyrrolo[2,3-b]pyridin-3-yl)-4H-pyrrolo[3,2-d]thiazol-2-yl)cyclohexyl)oxetan-3-amine] |
| 3.54 nM | 5280 nM | 3.7 nM | CC(C)c1c(-c2cn(C)c3ncccc23)[nH]c2sc(C3CCC(N4CC5(COC5)C4)CC3)nc12 (single isomer, unassigned) [Example 180, 6-(4-(6-isopropyl-5-(1-methyl-1H-pyrrolo[2,3-b]pyridin-3-yl)-4H-pyrrolo[3,2-d]thiazol-2-yl)cyclohexyl)-2-oxa-6-azaspiro[3.3]heptane] |
| 9.92 nM | 5660 nM | 36 nM | CC(C)c1c(-c2cn(C)c3ncccc23)[nH]c2sc(C3CCC(N4CC5(COC5)C4)CC3)nc12 (single isomer, unassigned) [Example 181, 6-(4-(6-isopropyl-5-(1-methyl-1H-pyrrolo[2,3-b]pyridin-3-yl)-4H-pyrrolo[3,2-d]thiazol-2-yl)cyclohexyl)-2-oxa-6-azaspiro[3.3]heptane] |
| 1.74 nM | 13500 nM | 0.76 nM | CC(C)c1c(-c2cn(C)c3ncccc23)[nH]c2sc(C3CCC(NCC(C)(C)O)CC3)nc12 (single isomer, unassigned) [Example 182, 1-((4-(6-isopropyl-5-(1-methyl-1H-pyrrolo[2,3-b]pyridin-3-yl)-4H-pyrrolo[3,2-d]thiazol-2-yl)cyclohexyl)amino)-2-methylpropan-2-ol] |
| 8.89 nM | 6790 nM | 9.41 nM | CC(C)c1c(-c2cn(C)c3ncccc23)[nH]c2sc(C3CCC(NCC(C)(C)O)CC3)nc12 (single isomer, unassigned) [Example 183, 1-((4-(6-isopropyl-5-(1-methyl-1H-pyrrolo[2,3-b]pyridin-3-yl)-4H-pyrrolo[3,2-d]thiazol-2-yl)cyclohexyl)amino)-2-methylpropan-2-ol] |
